Results taken from patent EP4755885A1 (Shanghai Hansoh Biomedical Co., Ltd., priority 2023, dated 2025).

Experiments:
[1] = Pharmacokinetic evaluation in rats, oral administration; set-up: species or system SD rats; conditions: rat, in vivo, p.o. 5 mg/kg, plasma
Protocol: SD rats were used as test animals to study the pharmacokinetic behavior of the following example compounds, administered orally at a dose of 5 mg/kg, in the plasma of the rats. SD rats, 3 per group, male. […] An example compound was weighed and added to a 4 mL glass bottle, and the solution was added. […] Sonication was performed for 10 min to obtain a colorless clear solution having a concentration of 0.5 mg/mL. […] The blood samples were placed in EDTA-K2 tubes and centrifuged at 6000 rpm at 4°C for 6 min to separate plasma, which was stored at -80°C. […] • Liquid phase conditions: Shimadzu LC-20AD pump • Mass spectrometry conditions: AB Sciex API 4000 mass spectrometer • Chromatographic column: phenomenex Gemiu 5 um C18 50 × 4.6 mm • Mobile phase: Solution A was 0.1% formic acid aqueous solution, and Solution B was methanol • Flow rate: 1.0 mL/min • Elution time: 0-4.0 min, the eluent was as follows: […] The results of the rat pharmacokinetic experiment are shown in the table below: Table 5: Pharmacokinetic parameters of oral administration of the compound of the present invention in rats

[2] = Pharmacokinetic evaluation in Macaca fascicularis monkeys, intravenous administration; assay type: in vivo; conditions: cynomolgus monkey, I.V. 0.2 mg/kg, plasma
Protocol: Macaca fascicularis monkeys were used as test animals to study the pharmacokinetic behavior of the compound of the present invention, administered intravenously at a dose of 0.2 mg/kg, in Macaca fascicularis monkeys (plasma).
Macaca fascicularis monkeys, 3 per group, male, Guangxi Xiongsen, Animal Production License No.: SCXK (Gui) 2021-0004).
Preparation of drug for intravenous administration: 5%DMSO+10%Solutol HS15+85%PBS
The compound of the present invention was weighed. 5% DMSO was first added according to the proportion in the total volume, followed by vortexing and sonication for 2 min to achieve complete dissolution. Then 10% Solutol HS15 was added, followed by vortexing and sonication for 2 min to achieve complete dissolution. Finally, 85% PBS was added, followed by vortexing and sonication for 5 min and filtering through a 0.22 um filter membrane to obtain a colorless, transparent, clear solution having a concentration of 0.1 mg/mL.
Three Macaca fascicularis monkeys, male, respectively administered I.V. after fasting overnight, at a dose of 0.2 mg/kg and in an administration volume of 2 mL/kg.
0.5 mL of blood was collected from the forelimb vein of the Macaca fascicularis monkeys before administration and at 0.083, 0.25, 0.5, 1, 2, 4, 8, and 24 h after administration. The blood samples were placed in EDTA-K2 tubes and centrifuged at 6000 rpm at 4°C for 6 min to separate plasma, which was stored at -80°C.
40 µL of a plasma sample was added with 160 µL of acetonitrile for precipitation, and after mixing, the mixture was centrifuged at 3500 × g for 5 to 20 min.
100 µL of the supernatant solution after treatment was taken for LC/MS/MS analysis of the concentration of the test compound.
Liquid phase condition: Shimadzu LC-20AD pump Mass spectrometry condition: AB Sciex API 4000 mass spectrometer Chromatographic column: phenomenex Gemiu 5 um C18 50 × 4.6 mm Mobile phase: Solution A was 0.1% formic acid aqueous solution, and Solution B was acetonitrile Flow rate: 0.8 mL/min Elution time: 0-4.0 min, the eluent was as follows:
Main pharmacokinetic parameters were calculated using WinNonlin 8.2. The results of the Macaca fascicularis monkey pharmacokinetic experiment are shown in Table 8 below: Table 8: Pharmacokinetic parameters of injection administration of the compound of the present invention in Macaca fascicularis monkeys

[2H]C([2H])([2H])n1nc2c3c(c(-n4ccn(-c5c6c(nn5-c5cc(C)c(F)c(C)c5)CCN(C(=O)c5cc7cc([C@H]8CCOC(C)(C)C8)ccc7n5[C@@]5(c7noc(=O)[nH]7)C[C@@H]5C)[C@H]6C)c4=O)ccc31)OCCC2 [Example 282, 3-((1S,2S)-1-(5-((S)-2,2-dimethyltetrahydro-2H-pyran-4-yl)-2-((S)-2-(4-fluoro-3,5-dimethylphenyl)-4-methyl-3-(3-(2-(methyl-d3)-2,7,8,9-tetrahydrooxaheptano[4,3,2-cd]indazol-5-yl)-2-carbonyl-2,3-dihydro-1H-imidazol-1-yl)-4,5,6,7-tetrahydro-2H-pyrazolo[4,3-c]pyridine-5-carbonyl)-1H-indol-1-yl)-2-methylcyclopropyl)-1,2,4-oxadiazol-5(4H)-one]
AUC(0-inf) [1]: 13.9 µg·h/mL | AUC(0-t) at 24 h [1]: 12.2 µg·h/mL | Cmax [1]: 0.971 µg/mL | Tmax [1]: 6 h | half-life [1]: 7.3 h | MRT inf ([1]; read-out: MRT 0-∞): 12 h | AUC(0-inf) [2]: 1.93 µg·h/mL | AUC(0-t) [2]: 1.68 µg·h/mL | C0 [2]: 1.08 µg/mL | half-life [2]: 9.8 h | MRT inf ([2]; read-out: MRT 0-∞): 10.3 h
